Results reported in patent US20090203707A1, “METHODS FOR TREATING PAIN” (priority 2008, published 2009).
“Also recorded” adds a separate entry of the source. Like-named read-outs stand apart in the source and are kept apart here.

Key:
[1] = biological target: SCN9A (Nav1.7) Na+ channel, α- and β1 subunits, in HEK293 cells (Homo sapiens, UniProt Q15858); assay: Whole-cell patch clamp, Nav1.7 peak INa in HEK293 cells (Example 1); conditions: for Mean amplitude of Nav1.7 peak INa, fraction of control: −100 mV to 0 mV, 50 msec
[2] = biological target: rNav1.8 Na+ channels in ND7-23 cells (Rattus norvegicus, UniProt Q62968); assay: Whole-cell patch clamp, rNav1.8 INa in ND7-23 cells (Example 2); conditions: for Use-dependent block of rNav1.8 INa: 40 pulses of 10 msec to +50 mV; for Kd: estimated from shift of steady-state inactivation curve (Bean equation)
[3] = system: CFA-induced thermal hyperalgesia; assay: CFA-induced thermal hyperalgesia, paw withdrawal latency; format: in vivo, Male Sprague Dawley rats; conditions: day 3 after CFA
[4] = Solubility of Ranolazine in aqueous solutions versus pH; format: physicochemical
[5] = system: endogenous TTX-S INa in ND7-23 cells; assay: cells; format: cell-based, rat DRG/mouse neuroblastoma hybrid; conditions: V0, recorded in the absence of TTX
[6] = biological target: hNav1.7+β1 subunits in HEK293 cells (Homo sapiens, UniProt Q15858); assay: Whole-cell patch clamp, hNav1.7 INa in HEK293 cells (Example 2); conditions: for Kd: estimated from shift of steady-state inactivation curve (Bean equation); for IC50: IC50 value, block of Nav1.7 INa
[7] = system: hNav1.7 and rNav1.8 Na+ channels; assay: Rate of development of slow inactivation, stated for hNav1.7 and rNav1.8 together; format: cell-based; conditions: 30 μM
Procedure: The time dependence of development of inactivation of hNav1.7 (−20 mV, FIG. 7A, n=4-5 cells) and rNav1.8 (+20 mV, FIG. 7B, n=4-5 cells) INa in the absence (▪) and presence (□) of 30 μM ranolazine is shown in FIG. 7. For control conditions, the progressive decay of currents with increasing conditioning pulse duration reflects entry of channels into inactivated states. The development of slow inactivation of hNav1.7+β1 and rNav1.8 channels could be fit with double and triple exponential functions, respectively (see Table 6, control, Development of slow inactivation).
As shown previously, (Vijayaragavan et al (2001) J. Neurosci 21:7909-18) the onset of slow inactivation of Nav1.8 channels is rapid when compared to Nav1.7 channels (˜fourfold, see Table 6, control, τF=10.78 and 43.97 msec for Nav1.8 and Nav1.7 channels, respectively). […] The time constants for development of inactivation of hNav1.7 (n=4 cells) and rNav1.8 (n=5 cells) INa with a depolarizing prepulse to −40 mV (hNav1.7) or −20 mV (rNav1.8) in the absence and presence of 30 μM ranolazine are given in Table 6.

[8] = system: CFA-induced mechanical allodynia; assay: CFA-induced mechanical allodynia, electro-von Frey withdrawal threshold; format: in vivo, Male Sprague Dawley rats
[9] = holding −100 mV to 0 mV, 0.1 Hz
[10] = male, Sprague Dawley, rat, in vivo, po
[11] = 10 μM, 10 sec prepulse, n=6 cells
[12] = 10 μM, 100 msec prepulse, n=4 cells
[13] = Dissociation constant for inactivated state (Kdi)
[14] = Dissociation constant for rested state (Kdr)
[15] = 10 μM, 10 sec prepulse, n=4 cells

Chain of rNav1.8 Na+ channels in ND7-23 cells (Q62968 whole entry): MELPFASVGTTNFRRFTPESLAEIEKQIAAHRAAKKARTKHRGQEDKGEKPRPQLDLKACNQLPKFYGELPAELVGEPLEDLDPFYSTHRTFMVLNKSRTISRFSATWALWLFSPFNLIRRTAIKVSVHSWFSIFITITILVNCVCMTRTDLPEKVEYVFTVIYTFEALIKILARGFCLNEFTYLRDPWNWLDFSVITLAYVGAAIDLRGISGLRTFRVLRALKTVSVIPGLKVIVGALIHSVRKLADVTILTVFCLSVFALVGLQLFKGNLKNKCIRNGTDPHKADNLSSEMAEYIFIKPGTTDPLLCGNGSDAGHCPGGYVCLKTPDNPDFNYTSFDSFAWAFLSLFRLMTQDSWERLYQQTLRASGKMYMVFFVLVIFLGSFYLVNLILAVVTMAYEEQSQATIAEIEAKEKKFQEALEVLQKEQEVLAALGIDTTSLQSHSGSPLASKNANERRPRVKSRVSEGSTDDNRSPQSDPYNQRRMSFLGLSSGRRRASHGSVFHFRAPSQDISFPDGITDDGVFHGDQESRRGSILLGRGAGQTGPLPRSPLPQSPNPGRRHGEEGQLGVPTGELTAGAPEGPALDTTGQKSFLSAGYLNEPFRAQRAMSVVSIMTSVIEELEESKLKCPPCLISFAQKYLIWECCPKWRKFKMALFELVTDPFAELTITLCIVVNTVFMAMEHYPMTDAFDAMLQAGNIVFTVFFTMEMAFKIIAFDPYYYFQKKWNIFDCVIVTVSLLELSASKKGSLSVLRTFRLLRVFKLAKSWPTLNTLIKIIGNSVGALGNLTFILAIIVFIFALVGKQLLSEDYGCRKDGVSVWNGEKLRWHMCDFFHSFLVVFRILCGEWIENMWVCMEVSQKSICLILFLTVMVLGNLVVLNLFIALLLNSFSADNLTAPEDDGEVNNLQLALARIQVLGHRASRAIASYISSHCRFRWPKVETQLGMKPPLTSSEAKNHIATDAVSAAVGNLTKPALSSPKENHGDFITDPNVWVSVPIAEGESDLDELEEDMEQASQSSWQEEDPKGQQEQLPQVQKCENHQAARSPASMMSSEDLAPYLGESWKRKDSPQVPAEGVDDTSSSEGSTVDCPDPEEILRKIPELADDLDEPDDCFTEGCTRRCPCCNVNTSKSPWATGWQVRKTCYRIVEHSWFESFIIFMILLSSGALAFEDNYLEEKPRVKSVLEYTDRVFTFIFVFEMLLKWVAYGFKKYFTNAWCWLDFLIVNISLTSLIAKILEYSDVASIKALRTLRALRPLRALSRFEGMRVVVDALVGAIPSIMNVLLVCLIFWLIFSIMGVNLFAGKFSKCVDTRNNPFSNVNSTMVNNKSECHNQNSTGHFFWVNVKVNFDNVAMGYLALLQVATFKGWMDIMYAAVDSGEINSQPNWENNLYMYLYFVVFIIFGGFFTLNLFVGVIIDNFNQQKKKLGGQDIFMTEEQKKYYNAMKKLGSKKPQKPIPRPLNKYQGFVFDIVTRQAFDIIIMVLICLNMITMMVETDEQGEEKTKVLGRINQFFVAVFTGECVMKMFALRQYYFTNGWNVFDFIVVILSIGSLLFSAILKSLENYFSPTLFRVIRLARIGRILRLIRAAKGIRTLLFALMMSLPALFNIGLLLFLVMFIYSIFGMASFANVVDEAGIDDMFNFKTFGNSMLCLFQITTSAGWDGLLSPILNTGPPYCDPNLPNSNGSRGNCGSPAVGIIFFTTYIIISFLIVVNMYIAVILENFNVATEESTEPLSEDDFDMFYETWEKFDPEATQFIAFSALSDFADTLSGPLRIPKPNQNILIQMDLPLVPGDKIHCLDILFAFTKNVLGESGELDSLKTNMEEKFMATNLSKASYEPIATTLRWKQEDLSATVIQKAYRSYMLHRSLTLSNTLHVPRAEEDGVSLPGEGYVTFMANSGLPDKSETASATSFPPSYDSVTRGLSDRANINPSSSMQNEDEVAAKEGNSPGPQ
Chain of hNav1.7+β1 subunits in HEK293 cells (Q15858 whole entry): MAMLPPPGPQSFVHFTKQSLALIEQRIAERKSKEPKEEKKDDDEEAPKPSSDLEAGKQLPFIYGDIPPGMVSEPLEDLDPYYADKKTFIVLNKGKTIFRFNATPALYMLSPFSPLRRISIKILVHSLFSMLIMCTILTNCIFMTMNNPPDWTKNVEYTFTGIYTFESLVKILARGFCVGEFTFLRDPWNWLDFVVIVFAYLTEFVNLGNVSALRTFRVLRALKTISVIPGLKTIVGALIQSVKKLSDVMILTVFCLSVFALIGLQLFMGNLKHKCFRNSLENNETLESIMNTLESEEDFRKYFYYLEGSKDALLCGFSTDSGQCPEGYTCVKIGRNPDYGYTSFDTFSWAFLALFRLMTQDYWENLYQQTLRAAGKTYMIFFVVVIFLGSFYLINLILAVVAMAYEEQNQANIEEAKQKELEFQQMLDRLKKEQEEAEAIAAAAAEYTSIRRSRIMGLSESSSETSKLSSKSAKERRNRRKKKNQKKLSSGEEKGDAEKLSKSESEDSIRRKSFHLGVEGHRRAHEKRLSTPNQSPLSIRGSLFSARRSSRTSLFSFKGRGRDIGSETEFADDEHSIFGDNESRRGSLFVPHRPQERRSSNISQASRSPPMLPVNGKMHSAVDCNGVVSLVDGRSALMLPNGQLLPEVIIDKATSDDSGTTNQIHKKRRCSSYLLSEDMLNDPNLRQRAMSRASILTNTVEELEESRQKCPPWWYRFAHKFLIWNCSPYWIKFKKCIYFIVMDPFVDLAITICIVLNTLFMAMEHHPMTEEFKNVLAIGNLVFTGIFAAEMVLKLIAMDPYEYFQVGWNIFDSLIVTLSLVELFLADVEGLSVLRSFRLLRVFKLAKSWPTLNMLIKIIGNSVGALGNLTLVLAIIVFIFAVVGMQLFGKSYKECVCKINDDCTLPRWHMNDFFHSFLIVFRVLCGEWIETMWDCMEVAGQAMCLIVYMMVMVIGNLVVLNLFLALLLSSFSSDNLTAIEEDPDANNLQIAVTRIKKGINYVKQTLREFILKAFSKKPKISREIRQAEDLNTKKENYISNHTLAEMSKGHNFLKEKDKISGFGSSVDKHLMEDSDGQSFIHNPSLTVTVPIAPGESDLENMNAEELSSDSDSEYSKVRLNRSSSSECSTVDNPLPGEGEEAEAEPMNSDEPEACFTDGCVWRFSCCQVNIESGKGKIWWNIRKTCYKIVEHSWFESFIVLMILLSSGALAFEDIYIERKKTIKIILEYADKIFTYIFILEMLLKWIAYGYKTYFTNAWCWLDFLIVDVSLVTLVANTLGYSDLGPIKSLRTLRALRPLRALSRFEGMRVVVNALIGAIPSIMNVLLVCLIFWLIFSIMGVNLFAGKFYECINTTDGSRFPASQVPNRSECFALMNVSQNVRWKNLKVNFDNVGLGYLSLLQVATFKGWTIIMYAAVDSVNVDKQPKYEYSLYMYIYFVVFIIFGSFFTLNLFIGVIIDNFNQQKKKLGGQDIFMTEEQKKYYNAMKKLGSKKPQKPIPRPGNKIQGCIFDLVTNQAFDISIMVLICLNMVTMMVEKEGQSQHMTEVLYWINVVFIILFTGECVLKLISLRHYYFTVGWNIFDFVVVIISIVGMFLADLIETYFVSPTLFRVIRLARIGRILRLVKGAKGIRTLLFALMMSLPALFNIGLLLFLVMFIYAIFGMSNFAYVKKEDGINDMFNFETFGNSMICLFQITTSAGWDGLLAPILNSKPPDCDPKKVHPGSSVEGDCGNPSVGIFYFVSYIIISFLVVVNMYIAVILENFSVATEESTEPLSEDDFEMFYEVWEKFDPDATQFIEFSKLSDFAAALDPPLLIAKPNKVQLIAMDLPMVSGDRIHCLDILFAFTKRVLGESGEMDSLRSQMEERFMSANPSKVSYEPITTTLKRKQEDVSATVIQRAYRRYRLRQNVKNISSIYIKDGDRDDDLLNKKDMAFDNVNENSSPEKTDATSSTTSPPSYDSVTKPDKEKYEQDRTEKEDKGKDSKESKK
Chain of hNav1.7+β1 subunits in HEK293 cells (Q07699 19-218 partner): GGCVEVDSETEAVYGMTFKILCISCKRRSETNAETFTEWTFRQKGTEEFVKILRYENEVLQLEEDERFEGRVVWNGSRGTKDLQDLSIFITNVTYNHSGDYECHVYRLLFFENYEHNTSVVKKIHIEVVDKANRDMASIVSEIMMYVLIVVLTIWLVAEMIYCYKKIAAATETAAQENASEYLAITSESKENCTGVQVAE
Chain of SCN9A (Nav1.7) Na+ channel, α- and β1 subunits, in HEK293 cells (Q15858 whole entry): as the sequence (Q15858 whole entry) above
Chain of SCN9A (Nav1.7) Na+ channel, α- and β1 subunits, in HEK293 cells (Q07699 19-218 partner): as the sequence (Q07699 19-218 partner) above

COc1ccccc1OCC(O)CN1CCN(CC(=O)Nc2c(C)cccc2C)CC1 (racemic) [Ranolazine, (±)-N-(2,6-dimethylphenyl)-4-[2-hydroxy-3-(2-methoxyphenoxy)-propyl]-1-piperazineacetamide]
Mean amplitude of Nav1.7 peak INa, fraction of control ([1]; 1 μM, 0.1 Hz): 0.9114 | Mean amplitude of Nav1.7 peak INa, fraction of control ([1]; 3 μM, 0.1 Hz): 0.7275 | Mean amplitude of Nav1.7 peak INa, fraction of control ([1]; 10 μM, 0.1 Hz): 0.4692 | Mean amplitude of Nav1.7 peak INa, fraction of control ([1]; 30 μM, 0.1 Hz): 0.327 | Block of Nav1.7 peak INa at end of pulse train (pulse 40) ([1]; 100 μM, 40 pulses −100 to 0 mV, 2, 5, 20 or 200 msec, 5 Hz): ~82.72±0.71% | p of logistic fit (Hill coefficient nH) for block of Nav1.7 peak INa [1, 9]: 0.8368 | x0 of logistic fit (IC50) for block of Nav1.7 peak INa [1, 9]: 10.3585 μM | Death (Male Sprague Dawley rats; doses of 100 mg/kg (i.p.)): 50% | Doses at which adverse effects were noted (Male Sprague Dawley rats; male, Sprague Dawley, rat, in vivo, ip): ≥ 100 mg/kg | Time of onset of adverse pulmonary event after drug administration (Male Sprague Dawley rats; [10]): approximately 1 hour | Time to resolution of adverse pulmonary effect after gavage (Male Sprague Dawley rats; [10]): ≤ 24 h | Adverse event (Male Sprague Dawley rats; rat, in vivo, po): respiratory strider | IC50 [2]: 21.5 ± 3.01 µM | Inactivation V1/2 (steady-state intermediate, 1 sec prepulse) ([2]; 1 μM): −42.75 ± 3.93 mV | Inactivation slope factor K (1 sec prepulse) ([2]; 1 μM): 7.38 ± 0.93 mV/e-fold | Inactivation V1/2 (steady-state intermediate, 1 sec prepulse) ([2]; 3 μM): −47.61 ± 4.56 mV | Inactivation slope factor K (1 sec prepulse) ([2]; 3 μM): 7.14 ± 0.61 mV/e-fold | Activation V1/2 ([2]; 10 μM): 4.71 ± 2.58 mV | Activation slope factor K ([2]; 10 μM): 8.55 ± 1.62 mV/e-fold | Inactivation V1/2 (steady-state intermediate, 1 sec prepulse) ([2]; 10 μM): −57.88 ± 5.73 mV | Inactivation slope factor K (1 sec prepulse) ([2]; 10 μM): 7.59 ± 0.79 mV/e-fold | V1/2 of steady-state slow inactivation [2, 11]: −54.57±3.69 | k of steady-state slow inactivation [2, 11]: 8.38±0.76 | V1/2 of steady-state fast inactivation [2, 12]: −40.66±3.23 | k of steady-state fast inactivation [2, 12]: 11.45±1.21 | Inactivation V1/2 (steady-state intermediate, 1 sec prepulse) ([2]; 30 μM): −59.52 ± 2.18 mV | Inactivation slope factor K (1 sec prepulse) ([2]; 30 μM): 7.59 ± 1.09 mV/e-fold | Use-dependent block of rNav1.8 INa ([2]; 30 μM, 1 Hz): 60.20±2.04% | Use-dependent block of rNav1.8 INa ([2]; 30 μM, 5 Hz): 67.96±4.68% | Use-dependent block of rNav1.8 INa ([2]; 30 μM, 10 Hz): 70.16±2.09% | Development of slow inactivation, AF ([2]; 30 μM, at +20 mV): 0.53 ± 0.07 | Development of slow inactivation, AI ([2]; 30 μM, at +20 mV): 0.25 ± 0.07 | Development of slow inactivation, AS ([2]; 30 μM, at +20 mV): 0.09 ± 0.02 | Development of slow inactivation, τF ([2]; 30 μM, at +20 mV): 5.59 ± 1.08 ms | Development of slow inactivation, τI ([2]; 30 μM, at +20 mV): 34.11 ± 14.14 ms | Development of slow inactivation, τS ([2]; 30 μM, at +20 mV): 703.24 ± 373.82 ms | Time constant of INa decay (single exponential) ([2]; 30 μM, at +20 mV, n=4 cells): 1.60 ± 0.04 ms | Development of slow inactivation, AF ([2]; 30 μM, at −20 mV): 0.52 ± 0.05 | Development of slow inactivation, AI ([2]; 30 μM, at −20 mV): 0.30 ± 0.06 | Development of slow inactivation, AS ([2]; 30 μM, at −20 mV): 0.18 ± 0.03 | Development of slow inactivation, τF ([2]; 30 μM, at −20 mV): 22.75 ± 2.31 ms | Development of slow inactivation, τI ([2]; 30 μM, at −20 mV): 98.08 ± 13.65 ms | Development of slow inactivation, τS ([2]; 30 μM, at −20 mV): 1203.00 ± 337.50 ms | Steady-state use-dependent block of rNav1.8 INa ([2]; 100 μM, 3, 5, 20 or 200 msec pulses to +50 mV, 5 Hz): 71.69±0.85% | Kd [2, 13]: 0.64 µM | Kd [2, 14]: 22.8 µM | IC50 ([2]; IC50 value, block of Nav1.8 INa, V0.5, holding potential −40 mV): 4.33 ± 0.52 µM | Hill Coefficient, block of Nav1.8 INa ([2]; V0, holding potential −100 mV): [0.90 ± 0.11] | Hill Coefficient, block of Nav1.8 INa ([2]; V0.5, holding potential −40 mV): [0.89 ± 0.09] | Effect on paw withdrawal from thermal stimulation ([3]; i.p. 10, 20, 50 mg/kg, 30 minutes after dosing): no significant effect on paw sensitivity was observed; also recorded: no significant effect of treatment on paw withdrawal from thermal stimulation | Effect on paw withdrawal from thermal stimulation ([3]; p.o. 20, 50, 100, 200 mg/kg, 1 hour after gavage): no significant effect of treatment on paw withdrawal from thermal stimulation | USP Solubility Class ([4]; Solution pH 4.81): Freely Soluble | USP Solubility Class ([4]; Solution pH 4.89): Soluble | USP Solubility Class ([4]; Solution pH 4.90): Soluble | USP Solubility Class ([4]; Solution pH 5.04): Soluble | USP Solubility Class ([4]; Solution pH 5.35): Sparingly Soluble | USP Solubility Class ([4]; Solution pH 5.82): Slightly soluble | USP Solubility Class ([4]; Solution pH 6.46): Slightly soluble | USP Solubility Class ([4]; Solution pH 6.73): Very slightly soluble | USP Solubility Class ([4]; Solution pH 7.08): Very slightly soluble | USP Solubility Class ([4]; Solution pH 7.59 (unbuffered water)): Very slightly soluble | USP Solubility Class ([4]; Solution pH 7.79): Very slightly soluble | USP Solubility Class ([4]; Solution pH 12.66): Very slightly soluble | IC50 ([5]; ND7/23, read-out: IC50 value, block of TTX-S INa): 9.05 ± 0.56 µM | Hill Coefficient, block of TTX-S INa [5]: [1.15 ± 0.08] | Inactivation V1/2 (steady-state intermediate, 1 sec prepulse) ([6]; 1 μM): −78.97 ± 3.09 mV | Inactivation slope factor k (1 sec prepulse) ([6]; 1 μM): 4.80 ± 0.21 mV/e-fold | Inactivation V1/2 (steady-state intermediate, 1 sec prepulse) ([6]; 3 μM): −84.44 ± 3.64 mV | Inactivation slope factor k (1 sec prepulse) ([6]; 3 μM): 4.76 ± 0.11 mV/e-fold | Activation V1/2 ([6]; 10 μM): −33.96 ± 2.06 mV | Activation slope factor k ([6]; 10 μM): 4.77 ± 0.32 mV/e-fold | Inactivation V1/2 (steady-state intermediate, 1 sec prepulse) ([6]; 10 μM): −86.99 ± 2.86 mV | Inactivation slope factor k (1 sec prepulse) ([6]; 10 μM): 4.56 ± 0.1 mV/e-fold | V1/2 of steady-state slow inactivation [6, 15]: −61.39±3.54 | k of steady-state slow inactivation [6, 15]: 14.22±2.14 | V1/2 of steady-state fast inactivation [6, 12]: −86.15±3.62 | k of steady-state fast inactivation [6, 12]: 7.55±0.82 | Inactivation V1/2 (steady-state intermediate, 1 sec prepulse) ([6]; 30 μM): −89.07 ± 5.41 mV | Inactivation slope factor k (1 sec prepulse) ([6]; 30 μM): 5.15 ± 0.31 mV/e-fold | Development of slow inactivation, AF ([6]; 30 μM, at −20 mV): 0.24 ± 0.02 | Development of slow inactivation, AS ([6]; 30 μM, at −20 mV): 0.56 ± 0.01 | Development of slow inactivation, τF ([6]; 30 μM, at −20 mV): 9.14 ± 2.49 ms | Development of slow inactivation, τS ([6]; 30 μM, at −20 mV): 1657.71 ± 180.23 ms | Time constant of INa decay (single exponential) ([6]; 30 μM, at −20 mV, n=4 cells): 0.68 ± 0.15 ms | Development of slow inactivation, AF ([6]; 30 μM, at −40 mV): 0.30 ± 0.02 | Development of slow inactivation, AS ([6]; 30 μM, at −40 mV): 0.67 ± 0.02 | Development of slow inactivation, τF ([6]; 30 μM, at −40 mV): 23.99 ± 2.92 ms | Development of slow inactivation, τS ([6]; 30 μM, at −40 mV): 1845.75 ± 129.03 ms | Kd [6, 13]: 0.47 µM | Kd [6, 14]: 12.1 µM | IC50 ([6]; V0, holding potential −120 mV): 10.4 ± 1.25 µM | IC50 ([6]; V0.5, holding potential −70 mV): 3.25 ± 0.17 µM | Hill Coefficient, block of Nav1.7 INa ([6]; V0, holding potential −120 mV): [0.84 ± 0.09] | Hill Coefficient, block of Nav1.7 INa ([6]; V0.5, holding potential −70 mV): [1.33 ± 0.08] | Rate of development of slow inactivation, faster than control ([7]; −20 mV (hNav1.7), +20 mV (rNav1.8)): 2-5 fold | Rate of development of slow inactivation, faster than control ([7]; −40 mV (hNav1.7), −20 mV (rNav1.8)): 4-10 fold | Effect on mechanical allodynia (paw sensitivity to mechanical stimulation) ([8]; i.p. 10, 20, 50 mg/kg, 30 minutes after dosing, day 3 after CFA): clearly reduced paw sensitivity to mechanical stimulation in a dose-dependent fashion; also recorded: dose dependent reduction in mechanical allodynia | Dose at which maximum analgesic response was achieved ([8]; oral gavage, plateau to the analgesic response): 100 mg/kg | Analgesic effect at highest oral dose ([8]; p.o. 200 mg/kg): non-significant trend toward a reduction in analgesic effect | Effect on mechanical allodynia ([8]; p.o. 20, 50, 100, 200 mg/kg, 1 hour after gavage, day 3 after CFA): dose dependent reduction in mechanical allodynia | Optimum oral dosing for reduction of mechanical allodynia ([8]; p.o., no additional benefit at higher doses (FIG. 11 legend)): 50 mg/kg
